Experimental data published in patent US20250177450A1, “METHODS FOR ADMINISTERING FREEZE-DRIED PLATELET DERIVATIVE COMPOSITIONS TO SUBJECTS TREATED WITH A FACTOR XI INHIBITOR” (Cellphire, Inc., priority 2021, published 2025).
Where two headings read alike, the source gives them in different places.

Assays:
[1] = test system: thrombus formation in whole blood; assay: T-TAS AR chip, rivaroxaban-anticoagulated whole blood; format: cell-based, human; settings: 9 uM dose (a pharmacological dose)
Description: Rivaroxaban (sometimes herein called Riv) dose-response in whole blood was measured using T-TASR. An AR chip (Collagen+TF) was used. T-TAS® assays were performed according to Example 3. The donor platelets were used at 307 k/μL.
Thrombosomes were prepared consistent with the procedures described in U.S. Pat. No. 8,486,617 (such as, e.g., Examples 1-5) and U.S. Pat. No. 8,097,403 (such as, e.g., Examples 1-3), and rehydrated by addition of sterile water. T-TAS® assays were run according to Example 3 using 3 μM rivaroxaban and different concentrations of thrombosomes (FIG. 10A, Table 8). The ‘No Riv’ vertical line indicates the approximate occlusion time of a sample with no added rivaroxaban.

[2] = test system: occlusion of Platelet Rich Plasma (PRP)
Description: The T-TAS® instrument was prepared for use according to the manufacturer's instructions. AR Chips (Diapharma Cat. #TC0101) and AR Chip Calcium Corn Trypsin Inhibitor (CaCTI; Diapharma Cat. #TR0101) were warmed to room temperature. […] The sample was loaded and run on the T-TAS® according to the manufacturer's instructions.
The effect of cangrelor and ticagrelor on occlusion time of Platelet Rich Plasma (PRP) with and without FDPDs was assessed using the T-TAS® assay. The concentrations of the agents were as follows: cangrelor at 1 μM, ticagrelor at 500 ng/mL, FDPDs at 150 k/μL, and ADP at 2 μM. […] The number of trials per each assay is listed as the “(n=_)” values.

[3] = cited from earlier work
NOD-SCID mice = assay: Tail snip bleeding time in clopidogrel-treated mice; format: in vivo, mouse; settings: clopidogrel 5 mg/kg for 3 days, untreated 758.6+/−623.4
Description: Mice were treated with clopidogrel at 5 mg/kg for 3 days. The mice were anesthetized, the tail end was snipped off at 1 mm diameter and submerged in warm saline and time to clot recorded. Animals were syringe injected, into a vein or artery, with saline or 1.6×10^9/kg of FDPDs, at the same time the tail was snipped, and the tail snip trial commenced. The time from tail snip to tail stop bleeding was recorded by visual inspection of cessation of blood loss.

[4] = test system: New Zealand White Rabbits; assay: Ear bleed time in clopidogrel-treated rabbits; format: in vivo, rabbit; settings: clopidogrel 23 mg/kg for 5 days, untreated 87.1+/−18.2
Description: Rabbits were treated with clopidogrel at 23 mg/kg for 5 days. The rabbits were anesthetized, the ear was bled and time to clot recorded. Animals were treated, injected into a vein or artery, with saline or 1.6×10^9/kg of human FDPDs, at the same time the ear was bled, and the ear bleed trial commenced. The time from ear bleed to stop bleeding was recorded by visual inspection.

[5] = test system: thrombin generation in platelet rich plasma; assay: Thrombin generation assay in dabigatran-treated PRP; format: cell-based, human; settings: dabigatran (100 ng/mL), PRP reagent; 18.89 untreated
Description: • (1) Open CAT software; set up instrument; and prepare PRP reagent (including Tissue Factor and some phospholipids), calibrator, and fluoro-buffer according to manufacturer guidelines. • (2) Thaw warfarin or control plasma in 37° C. water bath for 5 minutes. • (3) Rehydrate thrombosomes with cell culture grade water for 10 minutes then dilute with Control Buffer to double target concentration. • (4) For each sample, combine 1:1 volumes of Control Buffer with or without thrombosomes and plasma. • (5) Using a multichannel pipette, add 20 μL of PRP reagent to each well. • (6) Add 80 μL of sample per well.

[6] = test system: thrombus formation in GK PPP; assay: T-TAS AR chip, George King Platelet Poor Plasma with or without GPRP; format: biochemical, human; settings: GK PPP + 1 mM GPRP (No Tsomes)
Description: In the Total Thrombus-formation Analysis System (T-TAS®, FUJIMORI KOGYO CO., LTD), the sample is forced through collagen-coated microchannels using mineral oil. Changes in pressure are used to assess thrombus formation. The Occlusion Start Time is time it takes to reach Δ10 kPa, and the Occlusion Time=time it takes to each Δ80 kPa using an AR chip (Zacros Item No, TC0101).
The effect of GPRP (1 mM) on occlusion activity was also assayed.

[7] = test system: time to clot in pooled normal plasma; assay: Activated clotting time (ACT), heparin and protamine in pooled normal plasma; format: biochemical, human; settings: heparin titration
Description: This experiment assessed how clinical proportions of Heparin and Protamine affect FDPD function. FDPDs were prepared according to the procedure in Example 18. An Activating Clotting Time (ACT) assay was performed to measure time to clot and TGA was performed to measure thrombin generation. An initial Heparin titration run was performed using ACT to find the minimum Heparin dose needed to reach abnormal clot time.
Activated clotting time was measured using pooled normal plasma with heparin (H) and protamine (P) as labeled on the x-axis; ½ P, P, and 3/2 P represent protamine doses of 4, 8, and 12 μg/ml, respectively. FDPDs, (referred to as “Tsomes” in FIG. 33) were added at 10, 25 or 50 K/μl. […] “K” in the legend stands for 10^3 FDPDS. All samples were run in duplicate. N=2. The experiment was repeated on separate days to improve statistical relevance.

[8] = ADP (2 μM) stimulated PRP, cangrelor at 1 μM (n=4) or ticagrelor at 500 ng/mL (n=5), PRP alone 19.5±1.5

Compound: O=C(NC[C@H]1CN(c2ccc(N3CCOCC3=O)cc2)C(=O)O1)c1ccc(Cl)s1 [Rivaroxaban]
- occlusion and thrombus formation [1]: inhibits occlusion but not all thrombus formation

Compound: CC(=O)Oc1ccccc1C(=O)O [aspirin, Acetylsalicylic acid]
- occlusion time ([2]; PRP at 30K/μL, aspirin at 500 μM, PRP alone 25:56): > 30 min
- peak concentration ([3]; single 500 mg dose IV): 500 µM
- peak concentration ([3]; single 500 mg dose orally): 44 µM

Compound: CSCCNc1nc(SCCC(F)(F)F)nc2c1ncn2[C@@H]1O[C@H](COP(=O)(O)OP(=O)(O)C(Cl)(Cl)P(=O)(O)O)[C@@H](O)[C@H]1O [cangrelor]
- occlusion time [2, 8]: 28.0 ± 3.0 min

Compound: COC(=O)[C@H](c1ccccc1Cl)N1CCc2sccc2C1 [clopidogrel]
- bleed time (NOD-SCID mice): 1661 ± 257.9 s
- bleed time [4]: 206.8 ± 104.2 s

Compound: [H]/N=C(/N)c1ccc(NCc2nc3cc(C(=O)N(CCC(=O)O)c4ccccn4)ccc3n2C)cc1 [dabigatran]
- Time to peak [5]: 34.67 min

Compound: CCCSc1nc(N[C@@H]2C[C@H]2c2ccc(F)c(F)c2)c2nnn([C@@H]3C[C@H](OCCO)[C@@H](O)[C@H]3O)c2n1 [ticagrelor]
- occlusion time [2, 8]: 28.0 ± 3.0 min

Compound: GPRP
- Area Under Curve [6]: 52.43
- Occlusion Speed [6]: 0 kPa/min

Compound: Heparin
- minimum Heparin dose needed to reach abnormal clot formation [7]: 0.8 U/mL
